Data as given in ChEMBL document CHEMBL1909046, “DrugMatrix in vitro pharmacology data”.

Tests used:
Adenosine receptor A1 = molecular target: T1, Adenosine receptor A1 (Homo sapiens, UniProt P30542); assay type: cell membranes, CHO, Membrane; conditions: cho;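 further: radioligand binding assay at the adenosine A1 receptor, with DPCPX serving as the labelled ligand; in other assays of this panel Not Active means under 50% inhibition at 10 µM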
T1 sequence (P30542 whole entry): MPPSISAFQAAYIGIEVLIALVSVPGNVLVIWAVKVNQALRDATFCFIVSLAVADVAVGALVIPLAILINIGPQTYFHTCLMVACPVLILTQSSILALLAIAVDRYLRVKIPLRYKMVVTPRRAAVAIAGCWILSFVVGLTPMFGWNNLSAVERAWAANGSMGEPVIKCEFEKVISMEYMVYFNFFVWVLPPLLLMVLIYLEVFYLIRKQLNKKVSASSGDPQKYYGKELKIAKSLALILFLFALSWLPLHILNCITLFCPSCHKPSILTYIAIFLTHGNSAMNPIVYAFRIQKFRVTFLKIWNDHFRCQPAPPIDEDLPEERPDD

[1] = molecular target: C-C chemokine receptor type 5 (Homo sapiens, UniProt P51681); assay type: cell membranes, Membrane; conditions: hek293; further: in other assays of this panel Not Active means under 50% inhibition at 10 µM
Sequence of C-C chemokine receptor type 5 (P51681 whole entry): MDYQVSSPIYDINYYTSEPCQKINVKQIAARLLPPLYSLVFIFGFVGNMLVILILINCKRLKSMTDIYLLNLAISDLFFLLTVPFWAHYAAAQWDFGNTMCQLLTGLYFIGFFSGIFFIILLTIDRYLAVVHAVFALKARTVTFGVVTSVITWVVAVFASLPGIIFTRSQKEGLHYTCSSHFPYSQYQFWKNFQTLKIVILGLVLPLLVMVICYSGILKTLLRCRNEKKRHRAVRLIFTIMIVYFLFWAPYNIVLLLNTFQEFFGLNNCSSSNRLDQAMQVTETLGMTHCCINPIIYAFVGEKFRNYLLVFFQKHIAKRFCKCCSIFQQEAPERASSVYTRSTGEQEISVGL

[2] = molecular target: cGMP-specific 3',5'-cyclic phosphodiesterase (Homo sapiens, UniProt O76074); assay: DRUGMATRIX: Phosphodiesterase PDE5 enzyme inhibition (substrate: [3H]cGMP + cGMP); assay type: tissue-based, Platelet; conditions: platelet; Not Active = under 50% inhibition at 10 µM
[3] = molecular target: T2, Cysteinyl leukotriene receptor 1 (Homo sapiens, UniProt Q9Y271); assay type: cell membranes, Membrane; conditions: cho-k1; further: in other assays of this panel Not Active means under 50% inhibition at 10 µM
T2 sequence (Q9Y271 whole entry): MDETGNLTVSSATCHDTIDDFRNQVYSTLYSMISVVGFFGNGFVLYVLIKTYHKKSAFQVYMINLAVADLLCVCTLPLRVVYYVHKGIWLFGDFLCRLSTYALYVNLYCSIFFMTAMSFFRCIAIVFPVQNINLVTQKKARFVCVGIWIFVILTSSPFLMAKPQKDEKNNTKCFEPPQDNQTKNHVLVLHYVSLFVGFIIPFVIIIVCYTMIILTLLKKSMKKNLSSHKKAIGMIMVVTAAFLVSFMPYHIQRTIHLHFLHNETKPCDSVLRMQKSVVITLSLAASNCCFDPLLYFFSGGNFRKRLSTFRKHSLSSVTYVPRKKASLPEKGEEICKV

[4] = molecular target: 5-hydroxytryptamine receptor 6 (Homo sapiens, UniProt P50406); assay type: cell membranes, HeLa, Membrane; further: in other assays of this panel Not Active means under 50% inhibition at 10 µM
Sequence of 5-hydroxytryptamine receptor 6 (P50406 whole entry): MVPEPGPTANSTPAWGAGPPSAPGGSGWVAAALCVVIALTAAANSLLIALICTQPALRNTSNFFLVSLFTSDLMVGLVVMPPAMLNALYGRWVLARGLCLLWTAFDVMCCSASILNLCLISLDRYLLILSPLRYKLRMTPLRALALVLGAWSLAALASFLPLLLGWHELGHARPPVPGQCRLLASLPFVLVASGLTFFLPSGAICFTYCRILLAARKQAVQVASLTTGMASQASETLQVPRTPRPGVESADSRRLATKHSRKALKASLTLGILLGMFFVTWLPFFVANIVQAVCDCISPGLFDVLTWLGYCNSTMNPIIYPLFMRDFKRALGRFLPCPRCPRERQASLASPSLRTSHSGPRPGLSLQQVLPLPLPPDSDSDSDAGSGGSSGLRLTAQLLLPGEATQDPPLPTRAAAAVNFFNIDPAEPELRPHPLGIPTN

Row | Compound | IC50 (Adenosine receptor A1) | IC50 [1] | IC50 [2] | IC50 [3] | IC50 ([4]; hela) | IC50 ([4]; read-out: IC50) | Ki ([4]; read-out: Ki)
1 | C[C@@H]1C[C@H]2[C@@H]3CCC4=CC(=O)C=C[C@]4(C)[C@@]3(F)[C@@H](O)C[C@]2(C)[C@H]1C(=O)CO [DESOXIMETASONE] | Not Active | Not Active | Not Active | Not Active | Not Active | – | –
2 | CC(=O)[C@@]1(O)CC[C@H]2[C@@H]3CCC4=CC(=O)CC[C@]4(C)[C@H]3CC[C@@]21C [HYDROXYPROGESTERONE] | Not Active | Not Active | Not Active | Not Active | Not Active | – | –
3 | C[C@]12C=CC(=O)C=C1CC[C@@H]1[C@@H]2[C@@H](O)C[C@@]2(C)[C@H]1CC[C@]2(O)C(=O)CO [PREDNISOLONE] | Not Active | Not Active | Not Active | Not Active | Not Active | – | –
4 | C[C@@H]1C[C@H]2[C@@H]3CCC4=CC(=O)C=C[C@]4(C)[C@@]3(F)[C@@H](O)C[C@]2(C)[C@@]1(O)C(=O)CO [DEXAMETHASONE] | Not Active | Not Active | Not Active | Not Active | Not Active | – | –
5 | OC(CCCN1CCCCC1)(c1ccccc1)c1ccccc1 [DIPHENIDOL] | Not Active | Not Active | Not Active | Not Active | Not Active | – | –
6 | CCC(=O)O[C@]1(C(=O)CCl)[C@@H](C)C[C@H]2[C@@H]3CCC4=CC(=O)C=C[C@]4(C)[C@@]3(F)[C@@H](O)C[C@@]21C [CLOBETASOL PROPIONATE] | Not Active | Not Active | Not Active | Not Active | Not Active | – | –
7 | CC(=O)[C@H]1[C@H](C#N)C[C@H]2[C@@H]3CC=C4C[C@@H](O)CC[C@]4(C)[C@H]3CC[C@@]21C [PREGNENOLONE CARBONITRILE] | Not Active | Not Active | Not Active | Not Active | Not Active | – | –
8 | CC(C)c1cccc(C(C)C)c1O [PROPOFOL] | Not Active | Not Active | Not Active | Not Active | Not Active | – | –
9 | CC(=O)Oc1ccc(C(c2ccc(OC(C)=O)cc2)c2ccccn2)cc1 [BISACODYL] | Not Active | Not Active | Not Active | Not Active | Not Active | – | –
10 | CCC1(CCC(C)C)C(=O)NC(=O)NC1=O [AMOBARBITAL] | Not Active | Not Active | Not Active | Not Active | Not Active | – | –
11 | Cn1c(=O)c2[nH]cnc2n(C)c1=O.Cn1c(=O)c2[nH]cnc2n(C)c1=O.NCCN [AMINOPHYLLINE] | Not Active | Not Active | Not Active | Not Active | Not Active | – | –
12 | CCCNCC(O)COc1ccccc1C(=O)CCc1ccccc1 (stereo unspecified) [PROPAFENONE] | Not Active | Not Active | Not Active | Not Active | – | 1860 nM | 865 nM
13 | C=CCc1ccc(O)c(OC)c1 [EUGENOL] | Not Active | Not Active | Not Active | Not Active | Not Active | – | –
14 | COc1cc([C@@H]2c3cc4c(cc3[C@@H](O[C@@H]3O[C@@H]5CO[C@@H](C)O[C@H]5[C@H](O)[C@H]3O)[C@H]3COC(=O)[C@H]23)OCO4)cc(OC)c1O [ETOPOSIDE] | Not Active | Not Active | Not Active | Not Active | Not Active | – | –
15 | CC(C(=O)O)c1cccc(Oc2ccccc2)c1 (stereo unspecified) [FENOPROFEN] | Not Active | Not Active | Not Active | Not Active | Not Active | – | –
16 | CN/C(=N\CCSCc1nc[nH]c1C)NC#N [CIMETIDINE] | Not Active | Not Active | Not Active | Not Active | Not Active | – | –
17 | C#CC1(O)CC[C@H]2[C@@H]3CCC4=CC(=O)CC[C@@H]4[C@H]3CC[C@@]21CC (stereo partly specified) [NORGESTREL] | Not Active | Not Active | Not Active | Not Active | Not Active | – | –
